Where “and” joins values, the source holds several entries; their conditions need not be identical. Identical values can stand only once. Like-named read-outs stand apart in the source and are kept apart here.
Test: pKa of curing accelerator (dissociation constant of aqueous solution at 25° C.)
Assay type: physicochemical
Description: The “pKa value” referred to in the invention is a numerical value represented by the following formula when the dissociation constant of an aqueous solution at 25° C. is denoted by “Ka”. The dissociation constant Ka of the aqueous solution is determined by, for example, measuring a hydrogen ion concentration of the aqueous solution by a pH meter and calculating concentrations of a dissociated component and an undissociated component after dissolution by the use of the resulting hydrogen ion concentration and weighed values of the solvate and water before dissolution. pKa=−log10 Ka

[1] = aqueous solution at 25° C., values in text
[2] = aqueous solution, of the curing accelerator, Table 1, read-out: pKa

| pKa [1] | pKa (aqueous solution, aqueous solution at 25° C., values in text, read-out: pKa) | pKa (of the curing accelerator, Table 1) | SMILES | pKa [2] | pKa (aqueous solution at 25° C., values in text, read-out: pKa) |
| --- | --- | --- | --- | --- | --- |
| 7.9 | 7.88 |  | Cc1ncc[nH]1 [2-methylimidazole] | 7.9 |  |
|  |  |  | Nc1nc(N)nc(N)n1 [melamine] | 5 | 5 |
| 12.5 |  | 12.7 and 12.5 | C1CCC2=NCCCN2CC1 [DBU, 1,8-diazabicyclo[5.4.0]undecene-7] |  |  |
